Where a name gives a salt, the structure may show the parent alone. Read-outs that look alike come from different tables or passages of the source.
Experiments:
primary rat microglia [1] = test: Cell toxicity (dead cells, size <150 μm2) in coated fibrin (cFib) assay;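 on Fibrin % cell toxicity: share of dead cells sized under 150 µm2 at 10 µM in fibrin-stimulated microglia HTS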
in vitro [2] = conditions: rat, Cell Toxicity IC50 (uM) [cFib assay]
[3] = test system: LPS-induced microglia activation; test: Image-based assay of LPS-induced microglia activation (HTS and dose response); assay type: cell-based, rat; conditions: Rattus norvegicus, Microglia; for inhibition at 10 µM: read-out: LPS % inhibition
primary rat microglia [4] = test: Cell toxicity (dead cells, size <150 μm2) in LPS assay; conditions: for IC50: read-out: Cell Toxicity IC50 (uM) [LPS assay]
in vitro [5] = conditions: rat
[6] = test system: fibrin- and LPS-induced microglia activation; test: cells; assay type: cell-based, rat; conditions: for inhibition at 10 µM: Rattus norvegicus
[7] = test system: fibrin-induced microglia activation; test: Image-based assay of fibrin-induced microglia activation (HTS and dose response); assay type: cell-based, rat; conditions: for IC50 / inhibition at 10 µM: Rattus norvegicus, Microglia; for inhibition at 10 µM: read-out: Fibrin % inhibition
[8] = primary microglia HTS, fibrin stimulation, decreased size (<150 μm^2) as marker of toxicity
[9] = 48 h, Table 1, dose response 0.001-20 μM, triplicates, primary rat microglia, 48 h, read-out: LPS IC50
[10] = 48 h, primary microglia HTS, LPS stimulation, increased cell size (>800 μm^2) as marker of activation
[11] = LPS-induced microglia activation, dose response, read-out: LPS IC50 (uM) (Suppl. Table 7)
[12] = Table 3, read-out: LPS IC50 (uM) (Suppl. Table 7)
[13] = Table 6, read-out: LPS IC50 (uM) (Suppl. Table 7)
[14] = dose response, LPS-induced microglia activation, read-out: LPS IC50
[15] = primary microglia HTS, LPS stimulation, decreased size (<150 μm^2) as marker of toxicity
[16] = HTS of 1907 compounds, quadrant by fibrin and LPS inhibition
[17] = Microglia, Table 3, read-out: Cherry-picked Hit (Suppl. Table 7)
[18] = Microglia, HTS hit classification, read-out: Hit
[19] = quadrant by fibrin and LPS inhibition in HTS of 1907 compounds
[20] = 48 h, Table 1, dose response 0.001-20 μM, triplicates, primary rat microglia, 48 h, read-out: Fibrin IC50
[21] = Table 3, read-out: Fibrin IC50 (uM) (Suppl. Table 7)
[22] = Table 6, read-out: Fibrin IC50 (uM) (Suppl. Table 7)
[23] = dose response, fibrin-induced microglia activation, read-out: Fibrin IC50
[24] = fibrin-induced microglia activation, dose response, read-out: Fibrin IC50 (uM) (Suppl. Table 7)
[25] = primary microglia HTS, fibrin stimulation, increased cell size (>800 μm^2) as marker of activation

SMILES: CCOC(=O)O[C@]1(C(=O)COC(=O)CC)CC[C@H]2[C@@H]3CCC4=CC(=O)C=C[C@]4(C)[C@H]3[C@@H](O)C[C@@]21C [Prednicarbate, reference compound]
- Fibrin % cell toxicity (primary rat microglia [1]; [8]): 1%
- IC50 (in vitro [2]; Table 3): > 20 µM
- IC50 (in vitro [2]; cFib assay): > 20 µM
- IC50 (in vitro [2]; cFib assay, Table 6): > 20 µM
- IC50 [3, 9]: > 20 µM
- inhibition at 10 µM [3, 10]: 73%
- IC50 [3, 11]: > 20 µM
- IC50 [3, 12]: > 20 µM
- IC50 [3, 13]: > 20 µM
- IC50 [3, 14]: > 20 µM
- LPS % cell toxicity (primary rat microglia [4]; [15]): 1%
- IC50 (primary rat microglia [4]; LPS assay): > 20 µM
- IC50 (primary rat microglia [4]; LPS assay, Table 6): > 20 µM
- IC50 (in vitro [5]): > 20 µM
- Quadrant (FIG. 5b) [6, 16]: Q2
- inhibition at 10 µM [6, 17]: > 50%
- inhibition at 10 µM [6, 18]: > 50%
- Quadrant (FIG. 5b) ([6]; Table 1, screen at 10 μM): Q2
- Quadrant (FIG. 5b) ([6]; Table 3, screen at 10 μM): Q2
- Quadrant (FIG. 5b) ([6]; microglia HTS, Table 6): Q2
- Quadrant (FIG. 5b) [6, 19]: Q2
- Fibrin Selectivity [7]: 8510
- Fibrin Selectivity (LOG10) [7]: 3.93
- IC50 [7, 20]: 0.002 µM
- IC50 [7, 21]: 0.002 µM
- IC50 [7, 22]: 0.002 µM
- IC50 [7, 23]: 0.002 µM
- IC50 [7, 24]: 0.002 µM
- inhibition at 10 µM [7, 25]: 61%

SMILES: CC(=O)OCC(=O)[C@@]12N=C(C)O[C@@H]1C[C@H]1[C@@H]3CCC4=CC(=O)C=C[C@]4(C)[C@H]3[C@@H](O)C[C@@]12C [Deflazacort, reference compound]
- Fibrin % cell toxicity (primary rat microglia [1]; [8]): 2%
- IC50 (in vitro [2]; Table 3): 20 µM
- IC50 (in vitro [2]; cFib assay): 20 µM
- IC50 (in vitro [2]; cFib assay, Table 6): ≥ 20 µM
- IC50 [3, 9]: 0.04 µM
- inhibition at 10 µM [3, 10]: 105%
- IC50 [3, 11]: 0.04 µM
- IC50 [3, 12]: 0.04 µM
- IC50 [3, 13]: 0.04 µM
- IC50 [3, 14]: 0.04 µM
- LPS % cell toxicity (primary rat microglia [4]; [15]): 4%
- IC50 (primary rat microglia [4]; LPS assay): > 20 µM
- IC50 (primary rat microglia [4]; LPS assay, Table 6): > 20 µM
- IC50 (in vitro [5]): > 20 µM
- Quadrant (FIG. 5b) [6, 16]: Q2
- inhibition at 10 µM [6, 17]: > 50%
- inhibition at 10 µM [6, 18]: > 50%
- Quadrant (FIG. 5b) ([6]; Table 1, screen at 10 μM): Q2
- Quadrant (FIG. 5b) ([6]; Table 3, screen at 10 μM): Q2
- Quadrant (FIG. 5b) ([6]; microglia HTS, Table 6): Q2
- Quadrant (FIG. 5b) [6, 19]: Q2
- Fibrin Selectivity [7]: 42
- Fibrin Selectivity (LOG10) [7]: 1.63
- IC50 [7, 20]: < 0.001 µM
- IC50 [7, 21]: < 0.001 µM
- IC50 [7, 22]: < 0.001 µM
- IC50 [7, 23]: < 0.001 µM
- IC50 [7, 24]: < 0.001 µM
- inhibition at 10 µM [7, 25]: 111%
- Fibrin Selectivity (LOG10) ([7]; fibrin vs LPS, LOG10, Table 6): 1.63
- Fibrin Selectivity ([7]; fibrin vs LPS, Table 6): 42

SMILES: CCC(=O)O[C@]1(C(=O)CCl)[C@@H](C)C[C@H]2[C@@H]3CCC4=CC(=O)C=C[C@]4(C)[C@@]3(F)[C@@H](O)C[C@@]21C [Clobetasol propionate, reference compound]
- Fibrin % cell toxicity (primary rat microglia [1]; primary HTS, 10 μM, fibrin assay, dead cells size <150 μm2): 1%
- Fibrin % cell toxicity (primary rat microglia [1]; [8]): 3%
- IC50 (in vitro [2]; cFib assay): > 20 µM
- IC50 [3, 9]: < 0.001 µM
- inhibition at 10 µM [3, 10]: 105%
- IC50 [3, 11]: < 0.001 µM
- IC50 [3, 14]: < 0.001 µM
- inhibition at 10 µM ([3]; primary HTS, 10 μM, LPS-stimulated primary microglia): 30%
- LPS % cell toxicity (primary rat microglia [4]; primary HTS, 10 μM, LPS assay, dead cells size <150 μm2): 2%
- LPS % cell toxicity (primary rat microglia [4]; [15]): 3%
- IC50 (in vitro [5]): > 20 µM
- Quadrant (FIG. 5b) [6, 16]: Q2
- inhibition at 10 µM [6, 18]: > 50%
- inhibition at 10 µM ([6]; hit classification in microglia HTS, read-out: Cherry-picked Hit (Suppl. Table 7)): > 50%
- Quadrant (FIG. 5b) ([6]; Table 1, screen at 10 μM): Q2
- Quadrant (FIG. 5b) ([6]; primary HTS, 10 μM): Q4
- Quadrant (FIG. 5b) [6, 19]: Q2
- IC50 [7, 20]: < 0.001 µM
- IC50 [7, 23]: < 0.001 µM
- IC50 [7, 24]: < 0.001 µM
- inhibition at 10 µM ([7]; primary HTS, 10 μM, fibrin-stimulated primary microglia): -22%
- inhibition at 10 µM [7, 25]: 108%

SMILES: c1ccc2c(c1)OCC(C1=NCCN1)O2 (stereo not shown) [Idazoxan hydrochloride, reference compound]
- Fibrin % cell toxicity (primary rat microglia [1]; [8]): 2%
- IC50 (in vitro [2]; Table 3): > 20 µM
- IC50 (in vitro [2]; cFib assay): > 20 µM
- IC50 [3, 9]: 2 µM
- inhibition at 10 µM [3, 10]: 14%
- IC50 [3, 11]: 2 µM
- IC50 [3, 12]: 2 µM
- IC50 [3, 14]: 2 µM
- LPS % cell toxicity (primary rat microglia [4]; [15]): 0%
- IC50 (primary rat microglia [4]; LPS assay): > 20 µM
- IC50 (in vitro [5]): > 20 µM
- Quadrant (FIG. 5b) [6, 16]: Q3
- inhibition at 10 µM [6, 17]: > 50%
- inhibition at 10 µM [6, 18]: > 50%
- Quadrant (FIG. 5b) ([6]; Table 1, screen at 10 μM): Q3
- Quadrant (FIG. 5b) ([6]; Table 3, screen at 10 μM): Q3
- Quadrant (FIG. 5b) [6, 19]: Q3
- Fibrin Selectivity [7]: 5
- Fibrin Selectivity (LOG10) [7]: 0.69
- IC50 [7, 20]: 0.4 µM
- IC50 [7, 21]: 0.4 µM
- IC50 [7, 23]: 0.4 µM
- IC50 [7, 24]: 0.4 µM
- inhibition at 10 µM [7, 25]: 70%
